# Data taken from patent US12343346B2, “Salts and solid forms of (S)-3-(4-((4-(morpholinomethyl)benzyl)oxy)-1-oxoisoindolin-2-yl)piperidine-2,6-dione and compositions comprising and methods of using the same” (Celgene Corporation, priority 2012, dated 2025).
# Entries after “also recorded” stand apart in the source; their conditions may differ. Counter-ions that a name gives are not always drawn. Like-named read-outs stand apart in the source and are kept apart here.
# Experiments:
# [1] = Stability and form transfer experiments of HCl salt forms (XRPD result); format: physicochemical
# Experimental: (§1) All of the solid samples generated in the polymorph screen were analyzed by XRPD. XRPD analysis was conducted on a PANalytical Empyrean or a Thermo ARL X'TRA X-ray powder diffractometer using Cu Kα radiation at 1.54 Å.
# Further form conversion experiments were performed to determine interconversion among solid forms. Form conversion was also observed during further characterization of the solid forms.
# [2] = Competitive slurry / Form E and Form F transformation; format: physicochemical
# [3] = Compression test (2000-psi); format: physicochemical; conditions: 2000-psi pressure for about 1 minute
# Experimental: The stability of Form A was further characterized by compression test and form transfer experiments. Upon application of 2000-psi pressure for about 1 minute, the material was still Form A (FIG. 43).
# [4] = Equilibration (slurry) of Form A at room temperature and 50° C., form by XRPD; format: physicochemical
# Experimental: Equilibration and evaporation experiments were carried out by adding an excess of the HCl salt to up to 2 mL of a test solvent. The resulting mixture was agitated for at least 24 hours at room temperature and 50° C. separately. Upon reaching equilibrium, the saturated supernatant solution was removed, filtered using 0.45 μm PTFE filters and allowed to evaporate in an open vial under nitrogen at room temperature and 50° C., respectively. The solid resulting from the equilibration was isolated and air-dried before analysis.
# as §1
# [5] = Dynamic vapor sorption (DVS) moisture sorption/desorption; format: physicochemical
# Experimental: Hygroscopicity was determined on a Surface Measurement Systems DVS. […] The relative humidity was increased from 0% to 90% RH at 10% RH step, then at 95% RH. The relative humidity was then decreased in a similar manner to accomplish a full adsorption/desorption cycle. For hydrated forms, the analysis started at 50% RH and increased to 90% RH at 10% RH step. The relative humidity was then decreased in a similar manner to 0% RH followed by increasing to 50% RH.
# [6] = Heating of solid form followed by XRPD; format: physicochemical
# Experimental: Form C was obtained from anti-solvent recrystallization in DMSO/n-BuOH, DMSO/MTBE or DMSO/BuOAc. DSC and TGA thermograms of Form C are shown in FIG. 52 and FIG. 53, respectively. The TGA weight loss of 1.6 and 15.1 wt % corresponded to broad DSC endotherm around 50° C. and endotherms around 142-146° C., respectively, and can be attributed to loss of solvent/water in Form C. The DSC thermogram with an onset temperature of 251.8° C. was due to final melt/decomposition. […] The ^1H-NMR spectrum of Form C was consistent with Compound I structure with approximately one molar equivalent (or ˜13.9 wt %) of DMSO solvent (FIG. 55). Without being limited by any particular theory, Form C is a DMSO solvate. […]
smiles,measurement,setting,value
O=C1CCC(N2Cc3c(OCc4ccc(CN5CCOCC5)cc4)cccc3C2=O)C(=O)N1 (racemic) [racemic Compound (I) hydrochloride methanol solvate],Form conversion upon exposure to ambient moisture,[1],converted to racemic Compound (I) hydrochloride hydrate
same,Form conversion upon exposure to ambient moisture,[1]; listed as MeOH solvate of HCl salt of racemic Compound (I),converts to a hydrate of HCl salt of racemic Compound (I)
Cl.O=C1CC[C@H](N2Cc3c(OCc4ccc(CN5CCOCC5)cc4)cccc3C2=O)C(=O)N1 [Form A + F],XRPD Result,"[2]; IPA/water (50/50), 3 days at RT",Form A
same,XRPD Result,"[2]; IPA/water (65/35), 3 days at RT",Form A
same,XRPD Result,"[2]; IPA/water (80/20), 6 days at RT",Form A
same,XRPD Result,"[2]; IPA/water (95/5), 6 days at RT",Form A
same,XRPD Result,"[2]; MeOAc saturated with water, 3 days at RT",Form A
same,XRPD Result,"[2]; Water, 3 days at RT",Form A
Cl.O=C1CC[C@H](N2Cc3c(OCc4ccc(CN5CCOCC5)cc4)cccc3C2=O)C(=O)N1 [Form A],Form after compression,[3],remains as the Form A crystal form; also recorded: still Form A
same,Form by XRPD after equilibration,"[4]; MeCN/H2O (95:5), RT",Form D
same,Form by XRPD after slurry,"[4]; non-aqueous solvents, 24 h of slurry",Form A
same,Relative stability of forms (in words),"[2]; water and aqueous/organic (aqueous/IPA) mixtures, competitive slurry",more stable than hydrate forms
same,Approximate Solubility,"Acetone, room temperature",<1000 µg/mL
same,Approximate Solubility,"CH2Cl2, room temperature",<1000 µg/mL
same,Approximate Solubility,"CH3CN, room temperature",<1000 µg/mL
same,Approximate Solubility,"CH3CN/H2O (1:1), room temperature",>50000 µg/mL
same,Approximate Solubility,"DMSO, room temperature",>50000 µg/mL
same,Approximate Solubility,"EtOAc, room temperature",<1000 µg/mL
same,Approximate Solubility,"EtOH, room temperature",~1000 µg/mL
same,Approximate Solubility,"EtOH/H2O (1:1), room temperature",>50000 µg/mL
same,Approximate Solubility,"H2O, room temperature",>50000 µg/mL
same,Approximate Solubility,"Heptane, room temperature",<1000 µg/mL
same,Approximate Solubility,"IPA, room temperature",~1000 µg/mL
same,Approximate Solubility,"MEK, room temperature",<1000 µg/mL
same,Approximate Solubility,"MTBE, room temperature",<1000 µg/mL
same,Approximate Solubility,"MeOAc, room temperature",<1000 µg/mL
same,Approximate Solubility,"MeOH, room temperature",~10000 µg/mL
same,Approximate Solubility,"THF, room temperature",<1000 µg/mL
same,Approximate Solubility,"THF/H2O (1:1), room temperature",>50000 µg/mL
same,Approximate Solubility,"Toluene, room temperature",<1000 µg/mL
same,Solubility (most soluble),"in MeCN/water (1:1), EtOH/water (1:1), THE/water (1:1), and water",greater than 50 mg/mL
same,Solubility (in words),in MeOH,moderate solubility
same,Solubility (low or very low),"in acetone, MeCN, n-BuOH, EtOH, IPA, EtOAc, MEK, DCM, MTBE, heptane, MeOAc, toluene and THF",≤ 1000 µg/mL
same,Approximate Solubility,"n-BuOH, room temperature",<1000 µg/mL
same,"Hygroscopicity (in words, from DVS)",[5],slightly hygroscopic
same,XRPD Result after DVS (adsorption/desorption cycles),[5],remains as the Form A crystal; also recorded: no change
same,DVS or other comments: water uptake,[5]; from 0 to 90% RH,1.8 wt % water uptake
Cl.O=C1CC[C@H](N2Cc3c(OCc4ccc(CN5CCOCC5)cc4)cccc3C2=O)C(=O)N1 [Form B],XRPD Result,"[1]; Exposed to ambient air, 1 week at RT",Form A
same,XRPD Result,"[1]; IPA, 24 h at RT",Form A
same,Form conversion during exposure to ambient / ambient storage,[1],converts to the Form A crystal form; also recorded: converted to Form A
same,Form conversion during exposure to ambient / ambient storage,[1]; listed as B,Converts to Form A
same,XRPD Result after DVS (adsorption/desorption cycles),[5],Form A
Cl.O=C1CC[C@H](N2Cc3c(OCc4ccc(CN5CCOCC5)cc4)cccc3C2=O)C(=O)N1 [Form C],XRPD pattern after heating,[6]; heated to 165° C.,converts to the Form A crystal form; also recorded: consistent with Form A
same,Form conversion in IPA slurry,[1],convert to Form A
same,XRPD Result,"[1]; IPA, 24 h at RT",Form A
same,XRPD Result,"[1]; MeOAc, 1 day at RT",Form A
same,XRPD Result after DVS (adsorption/desorption cycles),[5],Form A
same,Form conversion upon exposure to high humidity,[5]; higher than 70% RH in the DVS instrument,converts to the Form A crystal form; also recorded: convert to Form A
Cl.O=C1CC[C@H](N2Cc3c(OCc4ccc(CN5CCOCC5)cc4)cccc3C2=O)C(=O)N1 [Form E],XRPD pattern after heating,[6]; heated to 120° C.,remains as the Form E crystal form; also recorded: consistent with Form E
same,XRPD pattern after heating,[6]; heated to 190° C.,converts to an amorphous form; also recorded: amorphous pattern
same,XRPD Result,"[2]; IPA/water (40/60), Spontaneous, RT",Form F
same,XRPD Result,"[2]; IPA/water (60/40), Spontaneous, RT",Form F
same,XRPD Result,"[2]; IPA/water (80/20), Spontaneous, RT",Form F
same,XRPD Result,"[2]; IPA/water (90/10), Spontaneous, RT",Form F
same,XRPD Result,"[2]; IPA/water (95/5), Spontaneous, RT",Form F
same,Form conversion in IPA/water mixtures,[2]; various IPA/water mixtures,convert to Form F
same,Form conversion in IPA slurry,[1],converted to Form A
same,XRPD Result,"[1]; IPA, 24 h at RT",Form A
same,"Hygroscopicity (in words, from DVS)",[5],hygroscopic
same,XRPD Result after DVS (adsorption/desorption cycles),[5],converts to the Form F crystal form; also recorded: partially converted to Form F
same,DVS or other comments: form conversion,[5]; during DVS experiment,Converts to Form F
Cl.O=C1CC[C@H](N2Cc3c(OCc4ccc(CN5CCOCC5)cc4)cccc3C2=O)C(=O)N1 [Form I],XRPD Result,"[1]; MeOAc, 1 minute at RT",Form A
same,Form conversion upon exposure to ambient humidity / ambient condition,[1]; listed as I,Converts to Form A
same,XRPD pattern after washing with MeOAc,[1]; washed with MeOAc,converts to the Form A crystal; also recorded: consistent with Form A
Cl.O=C1CC[C@H](N2Cc3c(OCc4ccc(CN5CCOCC5)cc4)cccc3C2=O)C(=O)N1 [Form K],Form conversion upon exposure to ambient humidity / ambient condition,[1],converts to the Form F crystal; also recorded: convert to Form F
same,Form conversion upon exposure to ambient humidity / ambient condition,[1]; listed as K,Converts to Form F
